Laboratory results published in patent US8927726B2, “N-cyclopropyl-N-piperidinyl-amide derivatives, pharmaceutical compositions containing them and uses thereof” (Boehringer Ingelheim International GmbH, priority 2012, dated 2015).

What follows are molecules tested against T1, mutant form of the human GPR119 receptor (Homo sapiens, UniProt Q8TDV5, S329A/T327A) (assay: LANCE cAMP-384 assay in HEK293 cells stably expressing mutant human GPR119). Conditions: mutant human GPR119 (SEQ ID No. 1), 20 min at 37 C.
T1 construct: X1, the printed 24-residue N-terminal leader ([…]) that replaces Met1; (N); expressed in transfected cells
T1 sequence (Q8TDV5 2-335 T327A/S329A): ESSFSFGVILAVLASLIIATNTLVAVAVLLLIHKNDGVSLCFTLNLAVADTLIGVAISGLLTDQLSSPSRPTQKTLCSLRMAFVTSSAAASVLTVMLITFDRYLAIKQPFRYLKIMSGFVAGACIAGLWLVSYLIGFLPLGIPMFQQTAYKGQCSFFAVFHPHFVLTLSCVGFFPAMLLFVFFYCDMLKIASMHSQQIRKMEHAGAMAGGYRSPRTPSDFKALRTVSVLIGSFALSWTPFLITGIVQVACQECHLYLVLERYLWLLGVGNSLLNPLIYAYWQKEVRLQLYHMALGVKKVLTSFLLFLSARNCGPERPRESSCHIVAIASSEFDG
Type: cell-based
Description: Quantitative detection of cAMP accumulation from cells expressing human GPR119 receptor is achieved using Perkin Elmer's LANCE cAMP-384 Kit (Cat #AD0264) according to the manufacturer's protocol. Briefly, HEK293 cells stably expressing a mutant form of the human GPR119 receptor as assay tool (Methionine 1 replaced with the amino acid sequence […], and T327 & S329 changed to alanines; SEQ ID No. 1) are grown to 50-70% confluency in cell culture media (DMEM, 10% heat inactivated Fetal Bovine Serum, 50 I.U./mL penicillin, 50 μg/mL streptomycin, 10 mM HEPES, 20 μg/mL G418 Sulfate). On the day of the assay, GPR119 stable HEK293 cells are lifted from the tissue culture plate and 1000 cells/well are incubated along with various concentrations of test compounds for 20 min at 37+ C. Detection Buffer (50mM HEPES, 10mM calcium chloride, 0.35% Triton X-100, 1 mg/mL BSA) containing cAMP-specific antibody is then added to all wells and allowed to equilibrate in the dark for 10 minutes at room temperature. Upon equilibration, Detection Buffer containing europium-labeled cAMP tracer complex is added to all wells and allowed to react for 1 hour at room temperature. After 1 hour, bound europium-labeled cAMP tracer is measured using a Perkin Elmer Envision plate reader. The quantity of cAMP generated in each well is derived from a standard curve. EC50 is determined using nonlinear regression analysis of the cAMP values over a range of agonist concentration (12 points spanning the range from 30 μM to 100 pM).

| SMILES | EC50 |
| --- | --- |
| O=C(c1ccc(-n2cncn2)c(F)c1)N(C1CC1)[C@@H]1CCN(CC2(C(F)(F)F)CC2)C[C@@H]1F (single isomer, unassigned) [Example 11] | 10 nM |
| Cc1nccn1-c1ncc(C(=O)N(C2CC2)[C@@H]2CCN(CC3(C(F)(F)F)CC3)C[C@@H]2F)cn1 (single isomer, unassigned) [Example 14] | 27 nM |
| Cc1nnnn1-c1ccc(C(=O)N(C2CC2)[C@@H]2CCN(CC3(C(F)(F)F)CC3)C[C@@H]2F)cn1 (single isomer, unassigned) [Example 12] | 12 nM |
| Cc1ncn(-c2cnc(C(=O)N(C3CC3)[C@@H]3CCN(CC4(C(F)(F)F)CC4)C[C@@H]3F)cn2)n1 (single isomer, unassigned) [Example 15] | 30 nM |

What follows are molecules tested against T2, human GPR119 (Homo sapiens, UniProt Q8TDV5) (assay: AlphaScreen cAMP assay in MIN6 cells stably transfected with human GPR119). Conditions: Min-6/hGPR119 cells, 45 minutes incubation at room temperature.
T2 construct: expressed in transfected cells; host or cells: MIN6 (mouse insulinoma) cells, stably transfected
T2 sequence (Q8TDV5 1-335): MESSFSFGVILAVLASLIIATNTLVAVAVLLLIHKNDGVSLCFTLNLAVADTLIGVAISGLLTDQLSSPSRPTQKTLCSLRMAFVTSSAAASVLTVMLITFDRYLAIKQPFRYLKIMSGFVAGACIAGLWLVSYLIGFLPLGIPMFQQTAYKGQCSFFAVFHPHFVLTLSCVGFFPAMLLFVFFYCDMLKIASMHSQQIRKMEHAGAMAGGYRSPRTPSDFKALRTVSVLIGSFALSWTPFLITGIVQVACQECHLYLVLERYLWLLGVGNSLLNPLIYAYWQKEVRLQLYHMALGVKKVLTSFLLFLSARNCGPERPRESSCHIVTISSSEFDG
Type: cell-based
Description: The compounds of formula I according to the invention modulate the activity of the G-protein-coupled receptor GPR119. The effect of the compounds on the activation of GPR119 and on the stimulation of intracellular cAMP concentration is determined using the AlphaScreen cAMP Assay Kit (Cat. No. #6760625R) made by PerkinElmer.
MIN6 cells [Miyazaki Jet al. Endocrinology. 1990 July; 127(1):126-32] are stably transfected with an expression vector for human GPR119 cDNA (Acc. No. NP_848566). Min-6 / hGPR119 cells are cultured in DMEM, 10% FBS, 50 μM β-mercaptoethanol, 0.3 mg/mL Geniticin, 2 mM GlutaMAX at 37° C. 5% CO2. For the assay, the cells are seeded in Optiplates (white, 384-well, 160W-barcoded, TC, sterile with lid, Cat. No. #6007688 (Perkin Elmer); 10000 cells/well; 50 μl). The plates covered with lids are then incubated for 24 hours at 37° C./5% CO2. After the medium is aspirated from the wells completely, 10 μl of the test compound are added, the compounds are diluted using stimulating buffer (140 mM NaCl, 3.6 mM KCl, 0.5 mM NaH2PO4, 0.5 mM MgSO4, 1.5 mM CaCl2, 10 mM Hepes, 5 mM NaHCO3; pH 7.4. 0.5 mM IBMX and 0.1% BSA, the final DMSO concentration is 1%). After 45 minutes incubation at room temperature (approx. 20° C.), the cAMP concentrations are determined using the AlphaScreen cAMP Assay Kit (Cat.No.# 6760625R from PerkinElmer).

| SMILES | EC50 |
| --- | --- |
| CC(C)(F)CN1CCC(N(C(=O)c2ccc(-c3cnco3)c(F)c2)C2CC2)CC1 [Example 4, N-Cyclopropyl-3-fluoro-N[1-(2-fluoro-2-methyl-propyl)-piperidin-4-yl]-4-oxazol-5-yl-benzamide] | 63 nM |
| CC(C)(F)CN1CCC(N(C(=O)c2cc(-c3ccc(C#N)cc3F)no2)C2CC2)CC1 [Example 8, 3-(4-Cyano-2-fluoro-phenyl)-isoxazole-5-carboxylic acid cyclopropyl-[1-(2-fluoro-2-methyl-propyl)-piperidin-4-yl]-amide] | 22 nM |
| CC(C)(F)CN1CCC(N(C(=O)c2cc(-c3ccc(C#N)cc3)on2)C2CC2)CC1 [Example 6, 5-(4-Cyano-phenyl)-isoxazole-3-carboxylic acid cyclopropyl-[1-(2-fluoro-2-methyl-propyl) -piperidin-4-yl]-amide] | 50 nM |
| CC(C)(F)CN1CCC(N(C(=O)c2cc(-c3ccc(C#N)cc3F)on2)C2CC2)CC1 [Example 10, 5-(4-Cyano-2-fluoro-phenyl)-isoxazole-3-carboxylic acid cyclopropyl-[1-(2-fluoro-2-methyl-propyl)-piperidin-4-yl]-amide] | 19 nM |
| N#Cc1ccc(-c2cc(C(=O)N(C3CC3)C3CCN(CC4(C(F)(F)F)CC4)CC3)no2)c(F)c1 [Example 9, 5-(4-Cyano-2-fluoro-phenyl)-isoxazole-3-carboxylic acid cyclopropyl-[1-(1-trifluoromethyl-cyclopropylmethyl)-piperidin-4-yl]-amide] | 6 nM |
| O=C(c1ccc(-c2cnco2)cc1)N(C1CC1)C1CCN(CC2(C(F)(F)F)CC2)CC1 [Example 3, N-Cyclopropyl-4-oxazol-5-yl-N-[1-(1-trifluoromethyl-cyclopropylmethyl)-piperidin-4-yl]-benzamide] | 79 nM |
| O=C(c1ccc(-c2cnco2)cc1)N(C1CC1)C1CCN(CCC(F)(F)F)CC1 [Example 2, N-Cyclopropyl-4-oxazol-5-yl-N-[1-(3,3,3-trifluoro-propyl)-piperidin-4-yl]-benzamide] | 643 nM |
| O=C(c1cnc(-n2cncn2)cn1)N(C1CC1)[C@@H]1CCN(CC2(C(F)(F)F)CC2)C[C@@H]1F (single isomer, unassigned) [Example 13] | 2 nM |
| CC(C)(F)CN1CCC(N(C(=O)c2ccc(-c3cnco3)cc2)C2CC2)CC1 [Example 1, N-Cyclopropyl-N-[1-(2-fluoro-2-methyl-propyl)-piperidin-4-yl]-4-oxazol-5-yl-benzamide] | 456 nM |
| N#Cc1ccc(-c2cc(C(=O)N(C3CC3)C3CCN(CC4(C(F)(F)F)CC4)CC3)no2)cc1 [Example 5, 5-(4-Cyano-phenyl)-isoxazole-3-carboxylic acid cyclopropyl-[1-(1-trifluoromethyl-cyclopropylmethyl) -piperidin-4-yl]-amide] | 27 nM |
| N#Cc1ccc(-c2cc(C(=O)N(C3CC3)C3CCN(CC4(C(F)(F)F)CC4)CC3)on2)c(F)c1 [Example 7, 3-(4-Cyano-2-fluoro-phenyl)-isoxazole-5-carboxylic acid cyclopropyl-[1-(1-trifluoromethyl-cyclopropylmethyl)-piperidin-4-yl]-amide] | 9 nM |
